According to patent US5545640A, “Protease inhibiting succinic acid derivatives” (Bio-Mega/Boehringer Ingeleheim Research Inc., priority 1995, dated 1996):
Where two headings read alike, the source gives them in different places.

Assays:
[1] = test system: HIV (H9/HTLV-IIIB stock) in C8166 cells; assay: Cell culture assay: inhibition of syncytia formation in HIV-infected C8166 cells (antiviral, anti-HIV effect); assay type: cell-based, HIV (HTLV-IIIB); human T4 cell line; details: read-out: EC50 (concentration causing 50% inhibition of syncytia formation)
Source text: Typical of such procedures are those described by S. Harada and N. Yamamoto, Jpn. J. Cancer Res. (Gann), 76, 432 (1985), and S. Harada et al., Science, 229, 563 (1985). An assay based on the latter procedures is described in the examples hereinafter.
In addition, Tables 1 to 8 list the results for exemplified compounds of formula 1 when assayed for antiviral (anti-HIV) effects according to the following protocol which is based on a cell culture assay previously described by Harada et al., supra. Transformed cells are used because of the rapidity with which HIV will replicate in the cells.
1. The test compound is dissolved in dimethylsulfoxide to a concentration of 5 mg/mL. The resultant solution .can be stored at 4° until use.
2. The resultant solution is diluted in RPMI 1640 (Gibco Laboratories, St. Lawrence, Mass., USA) to four times (4×) the final concentration which is to be tested. Once diluted in RPMI 1640, the solution is used in the cell culture assay within 4 h.
3. The latter solution (50 μL) is added to triplicate wells of a 96 well flat bottomed microtiter plate. RPMI (50 μL) also is added to control wells.
4. C8166 cells (5×10^4) in 50 μL of HEPES-buffered RPMI 1640 (pH=7.2), 10% heat inactivated fetal calf serum (FCS), […] gentamicin (complete media) are added to all wells.
5. Fifty times TCID50 of H9/HTLV-IIIB stock (stored in liquid nitrogen as cell culture supernatant in 50% FCS) in 100 μL of complete media is added to all wells. The infectious titer of the virus stocks is as previously determined by end point dilution on C8166 cells. The titer of stocks are stable for 6-12 months when stored at -193°.
6. Microtiter plates are then placed on level shelves of a 37°, 5% CO2 humidified incubator for 72 h.
7. Plates are then removed and centers of syncytia are counted in each well by low power phase contrast light microscopy. […] Control wells should have between 25 and 75 centers of syncytia per well.
8. Percent inhibition of syncytia formation is calculated by the formula: [formula]
The concentration of the test compound which causes a 50% inhibition of syncytia formation, i.e. the EC50, is determined by using the technique of serial dilution of the working solution at step 3 and graphically plotting the observed percent inhibition of syncytia formation against the various concentrations of the test compound.
In the following tables, assay results are listed for the exemplified compounds from the aforementioned recombinant HIV protease HPLC assay under the heading IC50 (nM) and from the cell culture assay under the heading EC50 (nM). Note that for some of the compounds listed in tables, the EC50 's have not been determined (ND).

HIV protease = target: T1, HIV protease (Human immunodeficiency virus type 1 group M subtype B, UniProt P04585); assay: biochemical; details: read-out: IC50 (concentration causing 50% inhibition of HIV protease)
T1 construct: an HIV-encoded enzyme known as HIV protease
Source text: The procedure is based on the capacity of the test compound to inhibit enzymatic cleavage by HIV protease of a decapeptide (the substrate) having an amino acid sequence which includes a known HIV protease cleavage site of a HIV polyprotein; see H. G. Krausslich et al., Proc. Natl. Acad. Sci. USA, 86, 807 (1989).
Anderson, S. Rakhit and C. Yoakim in the European patent application 443 560, published Aug. 28, 1991.

[2] = recombinant HIV protease, decapeptide substrate, HPLC assay
[3] = Human immunodeficiency virus 1, C8166 cells, H9/HTLV-IIIB, 50 times TCID50, 72 h, 37°

| IC50 (HIV protease; [2]) | SMILES | also measured |
| --- | --- | --- |
| 9 nM | CCC(CC)NC(=O)CC(C(=O)NC[C@@H](O)[C@H](Cc1ccccc1)NC(=O)[C@H](CC(N)=O)NC(=O)c1ccc2ccccc2n1)C(C)C (stereo partly shown) [Entry 50] |  |
| 7 nM | CCC(CC)NC(=O)C[C@@H](C(=O)NC[C@@H](O)[C@H](Cc1ccccc1)NC(=O)[C@@H](NC(=O)OC(C)(C)C)[C@@H](C)C(=O)O)C(C)(C)C [Entry 16] |  |
| 5 nM | CCC(CC)NC(=O)C[C@@H](C(=O)NC[C@@H](O)[C@H](Cc1ccccc1)NC(=O)[C@H](CC(N)=O)NC(=O)OCc1ccccc1)C(C)(C)C [Entry 20] | EC50 [1, 3]: 480 nM |
| 29 nM | CCCC(CCC)NC(=O)C1CCCCC1C(=O)NC[C@@H](O)[C@H](Cc1ccccc1)NC(=O)[C@@H](NC(=O)OCc1ccccc1)C(C)C (stereo partly shown) [Entry 56] |  |
| 19 nM | CC(C)c1cccc(C(C)C)c1NC(=O)C[C@@H](C(=O)NC[C@@H](O)[C@H](Cc1ccccc1)NC(=O)[C@@H](NC(=O)c1ccc2ccccc2n1)[C@@H](C)O)C(C)(C)C [Entry 42] | EC50 [1, 3]: 830 nM |
| 13 nM | CCC(CC)NC(=O)C[C@@H](C(=O)NC[C@@H](O)[C@H](Cc1ccccc1)NC(=O)[C@H](CC(N)=O)NC(=O)CCCCc1ccccc1)C(C)(C)C [Entry 12] |  |
| 2 nM | CCC(CC)NC(=O)C[C@@H](C(=O)NC[C@@H](O)[C@H](Cc1ccccc1)NC(=O)[C@H](CC(N)=O)NC(=O)c1ccc2ncccc2c1)C(C)(C)C [Entry 38] |  |
| 3 nM | CCC(CC)NC(=O)C[C@@H](C(=O)NC[C@@H](O)[C@H](Cc1ccccc1)NC(=O)[C@H](CC(N)=O)NC(=O)c1ccc2ccccc2n1)C(C)(C)C [Entry 35] | EC50 [1, 3]: 130 nM |
| 4.7 nM | CCC(CC)NC(=O)C[C@@H](C(=O)NC[C@@H](O)[C@H](Cc1ccccc1)NC(=O)c1ccc(Cl)cc1Cl)C(C)(C)C [Entry 66] | EC50 [1, 3]: 680 nM |
| 5.3 nM | CCC(CC)NC(=O)C[C@@H](C(=O)NC[C@@H](O)[C@H](Cc1ccccc1)NC(=O)c1cccc(N)c1C)C(C)(C)C [Entry 69] | EC50 [1, 3]: 258 nM |
| 90 nM | CCC(CC)NC(=O)C[C@@H](C(=O)NC[C@@H](O)[C@H](Cc1ccccc1)NC(=O)[C@H](CC(=O)O)NC(=O)OC(C)(C)C)C(C)(C)C [Entry 2] |  |
| 4 nM | CCC(CC)NC(=O)C[C@@H](C(=O)NC[C@@H](O)[C@H](Cc1ccccc1)NC(=O)[C@H](CC(N)=O)NC(=O)OCCc1ccccc1)C(C)(C)C [Entry 40] | EC50 [1, 3]: 570 nM |
|  | CC(C)[C@H](NC(=O)OCc1ccccc1)C(=O)N[C@@H](Cc1ccccc1)[C@H](O)CNC(=O)C(CC(=O)NC(C)(C)C)C(C)(C)C (stereo partly shown) [Entry 51] | EC50 [1, 3]: 200 nM; IC50 (HIV protease): 7 nM |
| 6.4 nM | CCC(CC)NC(=O)C[C@@H](C(=O)NC[C@@H](O)[C@H](Cc1ccccc1)NC(=O)c1ccccc1C)C(C)(C)C [Entry 68] | EC50 [1, 3]: 375 nM |
| 13 nM | CCC(CC)NC(=O)[C@H](CC(=O)NC[C@@H](O)[C@H](Cc1ccccc1)NC(=O)[C@@H](NC(=O)OCc1ccccc1)C(C)C)C(C)(C)C [Entry 61] |  |
| 4 nM | CCC(CC)NC(=O)C[C@@H](C(=O)NC[C@@H](O)[C@H](Cc1ccccc1)NC(=O)[C@H](CC(N)=O)NC(=O)C1Cc2ccccc2CN1)C(C)(C)C (stereo partly shown) [Entry 24] |  |
| 5 nM | CCC(CC)NC(=O)C[C@@H](C(=O)NC[C@@H](O)[C@H](Cc1ccccc1)NC(=O)[C@H](CC(N)=O)NC(=O)CNc1ccccc1)C(C)(C)C [Entry 19] |  |
| 14 nM | CCC(CC)NC(=O)C1CCCCC1C(=O)NC[C@@H](O)[C@H](Cc1ccccc1)NC(=O)[C@@H](NC(=O)OCc1ccccc1)C(C)C (stereo partly shown) [Entry 57] |  |

| IC50 (HIV protease; [2]) | SMILES | also measured |
| --- | --- | --- |
|  | CCC(CC)NC(=O)C[C@@H](C(=O)NC[C@@H](O)[C@H](Cc1ccccc1)NC(=O)[C@H](CC(N)=O)NC(=O)C1Cc2ccccc2N1)C(C)(C)C (stereo partly shown) [Entry 30] | IC50 (HIV protease): 3 nM |
| 20 nM | CCC(CC)NC(=O)C[C@@H](C(=O)NC[C@@H](O)[C@H](Cc1ccccc1)NC(=O)[C@H](CC(N)=O)NC(=O)c1nccc2ccccc12)C(C)(C)C [Entry 7] |  |
| 46 nM | CC(C)OC(=O)C[C@@H](C(=O)NC[C@@H](O)[C@H](Cc1ccccc1)NC(=O)[C@@H](NC(=O)c1ccc2ccccc2n1)[C@@H](C)O)C(C)(C)C [Entry 58, 3(R)-tert-butyl-4-{2(R)-hydroxy-4-phenyl-3(S)-{[N-(2-quinolylcarbonyl)threonyl]-amino}butylamino}-4-oxobutyric acid isopropyl ester] |  |
| 2 nM | CCC(CC)NC(=O)C[C@@H](C(=O)NC[C@@H](O)[C@H](Cc1ccccc1)NC(=O)[C@H](CC(N)=O)NC(=O)c1cnc2ccccc2c1)C(C)(C)C [Entry 39] |  |
| 88 nM | CCC(CC)NC(=O)C[C@@H](C(=O)NC[C@@H](O)[C@H](Cc1ccccc1)NC(=O)[C@H](CC(N)=O)NC(=O)CCN1CCCCC1)C(C)(C)C [Entry 3] |  |
| 100 nM | CCC(CC)NC(=O)C[C@@H](C(=O)NC[C@@H](O)[C@H](Cc1ccccc1)NC(=O)[C@@H](NC(=O)OC(C)(C)C)C(C)(C)C)C(C)(C)C [Entry 1] |  |
| 19 nM | CCC(CC)NC(=O)C[C@@H](C(=O)NC[C@@H](O)[C@H](Cc1ccccc1)NC(=O)[C@H](CCC(N)=O)NC(=O)OCc1ccccc1)C(C)(C)C [Entry 8] |  |
| 50 nM | CCC(CC)NC(=O)C(CC(=O)NC[C@@H](O)[C@H](Cc1ccccc1)NC(=O)[C@@H](NC(=O)OCc1ccccc1)C(C)C)CC(C)(C)C (stereo partly shown) [Entry 54] |  |
| 61 nM | CCC(CC)NC(=O)C[C@@H](C(=O)NC[C@@H](O)[C@H](Cc1ccc(O)cc1)NC(=O)[C@@H](NC(=O)c1ccc2ccccc2n1)[C@@H](C)O)C(C)(C)C [Entry 62, N^1-(1-ethylpropyl)-N^4 -{3(S)-{[N-(2-quinolylcarbonyl)-threonyl]amino}-2(R)-hydroxy-4-(4-hydroxyphenyl)butyl}-3(R)-tert-butylbutanediamide] |  |
| 11 nM | CCC(CC)NC(=O)C[C@@H](C(=O)NC[C@@H](O)[C@H](Cc1ccccc1)NC(=O)[C@H](CC(N)=O)NC(=O)NCc1ccccc1)C(C)(C)C [Entry 14] |  |
| 80 nM | CCC(CC)NC(=O)C[C@@H](C(=O)NC[C@@H](O)[C@H](Cc1ccccc1)NC(=O)[C@@H](NC(=O)OC(C)(C)C)[C@@H](C)C(=O)OCc1ccccc1)C(C)(C)C [Entry 4] |  |
| 32 nM | CCC(CC)NC(=O)CC(C(=O)NC[C@@H](O)[C@H](Cc1ccccc1)NC(=O)[C@H](CC(N)=O)NC(=O)OCc1ccccc1)C(C)C (stereo partly shown) [Entry 48] |  |
| 3 nM | CCC(CC)NC(=O)C[C@@H](C(=O)NC[C@@H](O)[C@H](Cc1ccccc1)NC(=O)[C@@H](NC(=O)c1ccc2ccccc2n1)C1(C(=O)O)CCCC1)C(C)(C)C [Entry 33] |  |
| 32 nM | CCC(CC)NC(=O)C[C@@H](C(=O)NC[C@@H](O)[C@H](Cc1ccccc1)NC(=O)[C@H](CC(N)=O)NC(=O)C1Cc2ccccc2CN1)C(C)(C)C (stereo partly shown) [Entry 5] |  |
| 51 nM | CCC(CC)OC(=O)CC(C(=O)NC[C@@H](O)[C@H](Cc1ccccc1)NC(=O)[C@H](CC(N)=O)NC(=O)OCc1ccccc1)C(C)(C)C (stereo partly shown) [Entry 47] |  |
| 29 nM | CCC(CC)NC(=O)C[C@H](C(=O)NC[C@@H](O)[C@H](Cc1ccccc1)NC(=O)[C@@H](NC(=O)OCc1ccccc1)C(C)(C)C)C(C)(C)C [Entry 60] |  |
| 66 nM | CC(C)[C@H](NC(=O)OCc1ccccc1)C(=O)N[C@@H](Cc1ccccc1)[C@H](O)CNC(=O)C1CCCCC1C(=O)NCC(C)(C)C (stereo partly shown) [Entry 55] |  |
| 5 nM | CCC(CC)NC(=O)C[C@@H](C(=O)NC[C@@H](O)[C@H](Cc1ccccc1)NC(=O)[C@@H](NC(=O)c1ccc2ccccc2n1)[C@@H](C)C(=O)O)C(C)(C)C [Entry 22] |  |

| SMILES | IC50 (HIV protease; [2]) | also measured |
| --- | --- | --- |
| CCC(CC)NC(=O)CC(C(=O)NC[C@@H](O)[C@H](Cc1ccccc1)NC(=O)[C@H](CC(N)=O)NC(=O)OCc1ccccc1)C(C)(C)C (stereo partly shown) [Entry 49] | 13 nM | EC50 ([1]; Human immunodeficiency virus 1, IIIB, C8166, 72 h): 1300 nM |
